This is an account of results in US20260001914A1, “MACROCYCLIC PEPTIDES TARGETING KRAS” (Merck Sharp & Dohme LLC, priority 2022, published 2026).

*1 amine or outer side, *2 acyl side, *3 side chain or, on linkers, in order; H or OH if unused. Where a SMILES comes first, the peptide text is derived from it. Bridges are numbered along the chain shown (N, C = ends). [ ]: non-standard residue; d: D form. Phe(4-guanidino) = N=C(N)Nc1ccc(C[C@H](N)C(=O)O)cc1; Ala(pyrimidin-5-yl) = N[C@@H](Cc1cncnc1)C(=O)O; X3 = CN([C@@H](Cc1cncnc1)C(=O)[*:2])[*:1]; NMeArg(Me) = CNC(=N)NCCC[C@H](NC)C(=O)O; X10 = CS(=O)(=O)CCCCN(CC(=O)[*:2])[*:1]; Phe(2-F) = N[C@@H](Cc1ccccc1F)C(=O)O; NMe3Pal = CN[C@@H](Cc1cccnc1)C(=O)O; X1 = O=C(C12CC(CN[*:1])(C1)C2)[*:2]; NMeAad = CN[C@@H](CCCC(=O)O)C(=O)O; Ala(cPr) = N[C@@H](CC1CC1)C(=O)O; NMeF = CN[C@@H](Cc1ccccc1)C(=O)O; PhLac = O=C(O)[C@@H](O)Cc1ccccc1; 3Pal = N[C@@H](Cc1cccnc1)C(=O)O; Ahp(2) = CCCCC[C@H](N)C(=O)O; Cba = N[C@@H](CC1CCC1)C(=O)O; NMeS = CN[C@@H](CO)C(=O)O; αMeC = C[C@](N)(CS)C(=O)O; NMeA = CN[C@@H](C)C(=O)O; Nle = CCCC[C@H](N)C(=O)O

The target of the assay is phosphorylation levels of ERK1/2 in AsPC-1 (homozygous KRAS-G12D) cells (Homo sapiens, UniProt P01116, G12D). The assay is described as follows: Cellular phospho-ERK assay in AsPC-1 cells (Alpha Screen), assay medium without fetal bovine serum.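 Also: signal taken as phospho-ERK over total ERK per well, both detected in one multiplex bead assay, EC50 from four-parameter logistic fit of dose-response curves.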 The class given is cell-based. The settings on record: phospho-ERK AlphaScreen, 18 h. For orientation: In Alpha technology, singlet oxygen from a donor bead excites a nearby acceptor bead.
Sequence of phosphorylation levels of ERK1/2 in AsPC-1 (homozygous KRAS-G12D) cells (P01116 1-186 G12D): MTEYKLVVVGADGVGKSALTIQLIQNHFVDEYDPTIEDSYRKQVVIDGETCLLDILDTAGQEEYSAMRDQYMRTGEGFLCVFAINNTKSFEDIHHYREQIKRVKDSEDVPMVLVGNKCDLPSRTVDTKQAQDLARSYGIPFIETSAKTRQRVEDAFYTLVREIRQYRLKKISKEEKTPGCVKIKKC
By EC50 is commonly meant the concentration giving half of the maximal effect. A higher EC50 goes with weaker potency. Consider `C[C@H]1C(=O)N[C@@H](Cc2cncnc2)C(=O)N[C@@H](CC2CC2)C(=O)N[C@@H](Cc2ccccc2F)C(=O)N[C@@H](CC2CC2)C(=O)N(C)[C@@H](Cc2ccccc2)C(=O)NCC23CC(C2)(C3)C(=O)O[C@@H](Cc2ccccc2)C(=O)N1C` [compound 267, cyclo(FLac-NMeA-PyrimAla-cPrA-Phe2F-cPrA-NMeF-amBCP)] (cyclo([Ala(cPr)][NMeF][X1][PhLac][NMeA][Ala(pyrimidin-5-yl)][Ala(cPr)][Phe(2-F)])), for which the concentration giving a half-maximal response (EC50) is 9.13 µM.

The compound `CCCC[C@@H]1NC(=O)[C@H](Cc2cccnc2)NC(=O)CN(CCCCS(C)(=O)=O)C(=O)[C@H](Cc2ccccc2)OC(=O)C23CC(CNC(=O)[C@H](Cc4cccnc4)N(C)C(=O)[C@H](CCCC)NC(=O)[C@H](Cc4ccccc4F)NC1=O)(C2)C3` [compound 407, cyclo(FLac-NOHmsbGly-3Pal-Nle-Phe2F-Nle-NMe3Pal-amBCP)] (cyclo([3Pal][Nle][Phe(2-F)][Nle][NMe3Pal][X1][PhLac][X10])) displayed an EC50 of more than 50.8 µM.

`CCCCC[C@@H]1NC(=O)[C@H](Cc2ccc(OC)cc2)NC(=O)[C@H](CC2CCC2)NC(=O)[C@H](Cc2cccnc2)NC(=O)[C@H](CCCNC(=N)N)NC(=O)[C@H](Cc2ccccc2F)NC(=O)CSC[C@@](C)(C(N)=O)NC(=O)[C@H](Cc2ccccc2)N(C)C1=O` [compound 370, cyclo(Phe2F-R-3Pal-cBuA-TyrOMe-Ahp-NMeF-aMeCl-ClAc)]: the EC50 was more than 50.8 µM.

`CCCCC[C@@H]1NC(=O)[C@H](Cc2ccc(OC)cc2)NC(=O)[C@H](CC2CCC2)NC(=O)[C@H](Cc2cccnc2)NC(=O)[C@H](CCCNC(=N)N)NC(=O)[C@H](Cc2ccccc2)NC(=O)CSC[C@@](C)(C(N)=O)NC(=O)[C@H](Cc2cncnc2)N(C)C1=O` [compound 376, cyclo(F-R-3Pal-cBuA-TyrOMe-Ahp-NMeAlaPyrim-aMeCl-ClAc)] ({CH2CO}-FR[3Pal][Cba]Y(Me)[Ahp(2)][X3][αMeC]-NH2; thioether N-8) yielded an EC50 of more than 50.8 µM.

`CCCCC[C@@H]1NC(=O)[C@H](Cc2ccc(OC)cc2)NC(=O)[C@H](CC2CCC2)NC(=O)[C@H](Cc2ccc(NC(=N)N)cc2)NC(=O)[C@H](CCCNC(=N)NC)N(C)C(=O)[C@H](Cc2ccccc2)NC(=O)CSC[C@@](C)(C(N)=O)NC(=O)[C@H](Cc2ccccc2)N(C)C1=O` [compound 380, cyclo(F-NMeArgMe-Phe4Gn-cBuA-TyrOMe-Abp-NMeF-aMeCl-ClAc)] ({CH2CO}-F[NMeArg(Me)][Phe(4-guanidino)][Cba]Y(Me)[Ahp(2)][NMeF][αMeC]-NH2; thioether N-8) returned an EC50 of more than 50.8 µM.

For `CCCC[C@@H]1NC(=O)[C@H](Cc2ccccc2F)NC(=O)C(CC2CC(F)(F)C2)NC(=O)[C@H](Cc2cncnc2)NC(=O)[C@H](C)N(C)C(=O)[C@H](Cc2ccccc2)OC(=O)C23CC(CNC(=O)[C@H](Cc4cccnc4)N(C)C1=O)(C2)C3` (single isomer, unassigned) [compound 123, cyclo(FLac-NMeA-PyrimAla-rF2Cba-Phe2F-Nle-NMe3Pal-amBCP)], the EC50 was more than 50.8 µM.

For the compound `CCCC[C@@H]1NC(=O)[C@H](Cc2cccnc2)NC(=O)[C@H](CO)N(C)C(=O)[C@H](Cc2ccccc2)OC(=O)C23CC(CNC(=O)[C@H](Cc4cccnc4)N(C)C(=O)[C@H](CCCC)NC(=O)[C@H](Cc4ccccc4F)NC1=O)(C2)C3` [compound 118, cyclo(FLac-NMeS-3Pal-Nle-Phe2F-Nle-NMe3Pal-amBCP)] (cyclo([3Pal][Nle][Phe(2-F)][Nle][NMe3Pal][X1][PhLac][NMeS])), the concentration for a half-maximal effect (EC50) is more than 50.8 µM.

In turn, `CCCC[C@@H]1NC(=O)[C@H](Cc2cccnc2)NC(=O)[C@H](CCCC(=O)N(C)C)N(C)C(=O)[C@H](Cc2ccccc2)OC(=O)C23CC(CNC(=O)[C@H](Cc4cccnc4)N(C)C(=O)[C@H](CCCC)NC(=O)[C@H](Cc4ccccc4F)NC1=O)(C2)C3` [compound 408, cyclo(FLac-hQdm-3Pal-Nle-Phe2F-Nle-NMe3Pal-amBCP)] (cyclo([3Pal][Nle][Phe(2-F)][Nle][NMe3Pal][X1][PhLac][NMeAad](NMe2))) registered an EC50 of more than 50.8 µM.
